Laboratory results: US20210300912A1 (Ikena Oncology, Inc., priority 2019, published 2021)
Read-outs that look alike come from different tables or passages of the source.

Assays:
AHR [1] = molecular target: T1, AHR (Mus musculus, UniProt P30561); assay: P450 CYP1A1 Luciferase Assay, Hepa1.6, agonist; format: cell-based, murine; conditions: Hepa1.6 cells, CYP1A1 enzyme activity read-out, agonist mode; Table 2
T1 construct: endogenous in cells; host or cells: Hepa1-6 / Hepa1.6 (murine hepatoma); DRE-luciferase reporter transfected in A3, no transfection in A2
T1 sequence (P30561 10-805 limits assumed): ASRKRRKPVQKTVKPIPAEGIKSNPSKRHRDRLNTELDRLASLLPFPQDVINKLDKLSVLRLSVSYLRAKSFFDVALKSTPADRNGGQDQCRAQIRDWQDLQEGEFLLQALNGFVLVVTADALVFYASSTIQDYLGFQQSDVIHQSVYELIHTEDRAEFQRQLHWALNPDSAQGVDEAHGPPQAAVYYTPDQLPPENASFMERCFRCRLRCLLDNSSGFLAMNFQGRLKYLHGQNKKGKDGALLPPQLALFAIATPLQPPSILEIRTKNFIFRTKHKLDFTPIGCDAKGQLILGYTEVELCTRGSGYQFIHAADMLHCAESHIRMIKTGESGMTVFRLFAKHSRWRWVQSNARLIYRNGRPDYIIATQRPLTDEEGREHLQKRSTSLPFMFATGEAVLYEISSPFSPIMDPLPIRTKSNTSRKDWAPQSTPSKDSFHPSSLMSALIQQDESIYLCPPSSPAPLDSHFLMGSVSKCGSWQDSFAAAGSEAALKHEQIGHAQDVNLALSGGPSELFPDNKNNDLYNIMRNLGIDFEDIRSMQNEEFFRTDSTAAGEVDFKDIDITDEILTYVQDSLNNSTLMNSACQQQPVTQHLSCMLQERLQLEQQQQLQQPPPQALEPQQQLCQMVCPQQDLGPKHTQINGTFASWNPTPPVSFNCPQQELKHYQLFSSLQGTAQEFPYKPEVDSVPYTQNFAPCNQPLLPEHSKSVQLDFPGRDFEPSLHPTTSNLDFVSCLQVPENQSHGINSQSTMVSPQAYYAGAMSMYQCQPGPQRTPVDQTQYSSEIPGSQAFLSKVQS
T1 sequence (P11499 whole entry partner): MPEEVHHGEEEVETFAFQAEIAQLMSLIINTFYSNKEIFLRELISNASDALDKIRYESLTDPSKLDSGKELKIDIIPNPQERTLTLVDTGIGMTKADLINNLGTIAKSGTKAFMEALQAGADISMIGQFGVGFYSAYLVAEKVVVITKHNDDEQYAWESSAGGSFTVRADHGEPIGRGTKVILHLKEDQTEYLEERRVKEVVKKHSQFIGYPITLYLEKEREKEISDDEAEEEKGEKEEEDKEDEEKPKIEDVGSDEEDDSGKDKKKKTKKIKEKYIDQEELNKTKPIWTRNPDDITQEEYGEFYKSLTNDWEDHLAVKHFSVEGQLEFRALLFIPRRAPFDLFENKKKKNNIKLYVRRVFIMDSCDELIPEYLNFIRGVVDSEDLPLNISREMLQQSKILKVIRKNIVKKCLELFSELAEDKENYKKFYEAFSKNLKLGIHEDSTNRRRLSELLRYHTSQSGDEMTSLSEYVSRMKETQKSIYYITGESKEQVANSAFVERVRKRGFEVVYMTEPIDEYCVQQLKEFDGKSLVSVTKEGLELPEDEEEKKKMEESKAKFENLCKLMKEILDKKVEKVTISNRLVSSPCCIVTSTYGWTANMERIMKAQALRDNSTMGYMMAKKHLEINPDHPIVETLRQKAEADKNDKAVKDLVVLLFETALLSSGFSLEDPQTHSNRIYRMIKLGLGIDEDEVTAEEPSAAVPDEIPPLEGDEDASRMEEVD
T1 sequence (O08915 whole entry partner): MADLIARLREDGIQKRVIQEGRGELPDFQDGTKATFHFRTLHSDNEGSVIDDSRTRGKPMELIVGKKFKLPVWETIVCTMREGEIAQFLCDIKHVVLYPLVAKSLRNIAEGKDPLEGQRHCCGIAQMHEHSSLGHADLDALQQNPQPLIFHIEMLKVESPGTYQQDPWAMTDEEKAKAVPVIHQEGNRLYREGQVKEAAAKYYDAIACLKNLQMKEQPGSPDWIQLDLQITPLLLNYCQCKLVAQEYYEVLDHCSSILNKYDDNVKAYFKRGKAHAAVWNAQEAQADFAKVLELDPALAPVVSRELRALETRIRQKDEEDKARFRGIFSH
Experimental: AHR binds to Dioxin Responsive Elements (DRE) upstream of genes that it activates. One measure of AHR activity is P450 CYP1A1 protein levels determined by measuring CYP1A1 enzyme activity using a luminogenic CYP1A1 luciferin-based substrate. Luciferase activity will reflect CYP1A1 activity resulting from activation of AHR in the cells.
Murine Hepa1-6 or Hepa-1c1c7 or other murine cell line, human HepG2 or other human cell line are plated in media (96-well, 384-well or other plates) and incubated overnight at 37 C in a CO2 incubator.
(§1) The next day, an AHR agonist compound is added. Cells are incubated for 6, 16 or 24 hours or another time point and then lysed and incubated with a CYP1A1 luciferase-based substrate (e.g., Luciferin-CEE) for 3, 6, or 12 hours of another time point. Determination of luciferase activity as a read-out of CYP1A1 enzyme activity can be measured with a commercial kit such as the Promega P450 Glo CYP1A1 detection reagent or any kit or reagents that provide for measuring luciferase activity. The level of luciferase with only activating ligand (e.g., such as TCDD, kynurenine, ITE (2-(1H-indole-3-ylcarbonyl)-4-thiazolecarboxylic methyl ester), VAF347, BNF (beta-naphthoflavone), ICZ (6-formylindolo(3,2-b) carbazole or other AHR ligands) added is the maximum signal while the luciferase with no ligand is the minimum signal. EC50s can be determined as the concentration which activates half of the maximum luciferase activity.

AHR [2] = molecular target: T2, AHR (Homo sapiens, UniProt P35869); assay: DRE-Luciferase Reporter Assay, HepG2, agonist; format: cell-based; conditions: HepG2 cells, agonist mode
T2 construct: endogenous in cells; host or cells: HepG2 (human), DRE-luciferase reporter stably or transiently transfected
T2 sequence (P35869 11-848): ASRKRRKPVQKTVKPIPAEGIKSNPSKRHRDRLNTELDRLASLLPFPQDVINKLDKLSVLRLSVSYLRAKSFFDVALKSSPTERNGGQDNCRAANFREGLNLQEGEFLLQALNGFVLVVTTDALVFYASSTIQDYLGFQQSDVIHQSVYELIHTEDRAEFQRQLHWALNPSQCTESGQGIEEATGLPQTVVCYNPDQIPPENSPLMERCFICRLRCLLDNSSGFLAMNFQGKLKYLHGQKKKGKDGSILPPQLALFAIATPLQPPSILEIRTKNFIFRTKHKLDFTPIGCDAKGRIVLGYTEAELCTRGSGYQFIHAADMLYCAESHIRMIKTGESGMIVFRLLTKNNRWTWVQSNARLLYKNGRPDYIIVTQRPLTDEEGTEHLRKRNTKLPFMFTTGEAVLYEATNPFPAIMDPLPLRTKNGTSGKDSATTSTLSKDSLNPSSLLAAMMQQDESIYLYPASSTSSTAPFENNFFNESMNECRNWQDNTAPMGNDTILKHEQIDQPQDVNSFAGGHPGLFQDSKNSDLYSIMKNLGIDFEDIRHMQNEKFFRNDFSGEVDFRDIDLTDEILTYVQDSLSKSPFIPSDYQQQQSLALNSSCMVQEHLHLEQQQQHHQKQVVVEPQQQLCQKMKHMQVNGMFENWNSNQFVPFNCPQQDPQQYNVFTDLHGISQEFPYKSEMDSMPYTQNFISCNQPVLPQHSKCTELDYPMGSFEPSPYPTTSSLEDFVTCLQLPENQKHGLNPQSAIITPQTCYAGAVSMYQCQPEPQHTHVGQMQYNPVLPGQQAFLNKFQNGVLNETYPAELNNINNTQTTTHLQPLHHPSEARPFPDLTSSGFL
Experimental: (§2) AHR binds to Dioxin Responsive Elements (DRE) upstream of genes that it activates. One measure of AHR activity is activation of a reporter gene, such as luciferase, downstream of one or multiple DRE elements. Luciferase activity will reflect activation and inhibition of AHR in the cells expressing this reporter.
(§3) Murine Hepa1-6 or Hepa-1c1c7 or other murine cell line with a DRE-luciferase reporter either stably or transiently transfected are plated in media in plates (96-well, 384-well or other plates) and incubated overnight at 37 C in a CO2 incubator. Likewise, human HepG2 or other human cell line with a DRE-luciferase reporter either stably or transiently transfected are plated in media in plates (96-well, 384-well or other plates) and incubated overnight at 37 C in a CO2 incubator.
as §1, with “lysed” for “lysed and incubated with a CYP1A1 luciferase-based substrate (e.g., Luciferin-CEE)”, “determination” for “3, 6, or 12 hours of another time point. Determination”, “the AHR activation. Luciferase” for “CYP1A1 enzyme activity”, “Luciferase kit” for “P450 Glo CYP1A1 detection reagent”, “provide the luciferin substrate” for “provide”, “(e.g.” for “(e.g.,”

AHR [3] = molecular target: T1, AHR; assay: DRE-Luciferase Reporter Assay, Hepa1.6, agonist; format: cell-based, murine; conditions: Hepa1.6 cells, agonist mode
Experimental: as §2, §3
as §1, with “lysed” for “lysed and incubated with a CYP1A1 luciferase-based substrate (e.g., Luciferin-CEE)”, “determination” for “3, 6, or 12 hours of another time point. Determination”, “the AHR activation. Luciferase” for “CYP1A1 enzyme activity”, “Luciferase kit” for “P450 Glo CYP1A1 detection reagent”, “provide the luciferin substrate” for “provide”, “(e.g.” for “(e.g.,”

[4] = Table 2, read-out: DRE-Luc HepG2 - Agonist: Average EC50
[5] = Table 3, read-out: DRE-Luc Hepa1.6 - Agonist: Average EC50
[6] = Table 3, read-out: DRE-Luc HepG2 - Agonist: Average EC50
[7] = DRE-Luc Hepa1.6 - Agonist: Average EC50 (μM), Table 3

## O=C(c1nc([C@H]2CC[C@H](C(=O)O)CC2)cs1)c1c[nH]c2ccccc12 [Compound I-4]
AHR [1]
  EC50: > 1 µM
AHR [2]; [4]
  EC50: 0.1 to 1 µM

## COC(=O)c1csc(C(=O)c2c[nH]c3ccccc23)n1 [Compound P-4]
AHR [1]
  EC50: > 1 µM
AHR [2]; [4]
  EC50: 0.01 to 0.1 µM

## CC(C)c1csc(C(=O)c2c[nH]c3ccc(S(=O)(=O)O)cc23)n1 [Compound I-19]
AHR [1]
  EC50: > 1 µM
AHR [2]; [4]
  EC50: > 1 µM

## CN1CCC(c2csc(C(=O)c3c[nH]c4ccccc34)n2)CC1 [Compound I-7]
AHR [1]
  EC50: > 1 µM
AHR [2]; [4]
  EC50: 0.1 to 1 µM

## O=C(O)CCC(=O)N1CCC(c2csc(C(=O)c3c[nH]c4ccccc34)n2)CC1 [Compound I-18]
AHR [1]
  EC50: > 1 µM
AHR [2]; [4]
  EC50: > 1 µM

## Cc1sc(C(=O)c2c[nH]c3ccccc23)nc1C(=O)OC1CC[N+](C)(C)CC1 [Compound I-10]
AHR [1]
  EC50: > 1 µM
AHR [2]; [4]
  EC50: 0.1 to 1 µM

## C[N+](C)(C)CCC(=O)N1CCC(c2csc(C(=O)c3c[nH]c4ccccc34)n2)CC1 [Compound I-23]
AHR [1]
  EC50: > 1 µM
AHR [2]; [4]
  EC50: > 1 µM

## COC(=O)c1nc(C(=O)c2c[nH]c3ccccc23)sc1Nc1ccccc1 [Compound I-91]
AHR [3]; [5]
  EC50: > 1 µM
AHR [2]; [6]
  EC50: > 1 µM

## COc1ccc2c(C(=O)c3nc(C(C)C)cs3)c[nH]c2c1 [Compound I-2]
AHR [1]
  EC50: > 1 µM
AHR [2]; [4]
  EC50: < 0.01 µM

## COC(=O)c1nc(C(=O)c2c[nH]c3ccccc23)sc1Br [Compound I-53]
AHR [3]; [7]
  EC50: 0.01 to 0.1 µM
AHR [2]; [6]
  EC50: < 0.01 µM

## COC(=O)c1csc(C(=O)c2c[nH]c3cc([N+](=O)[O-])ccc23)n1 [Compound I-90]
AHR [3]; [7]
  EC50: 0.01 to 0.1 µM
AHR [2]; [6]
  EC50: 0.01 to 0.1 µM

## O=C(c1nc([C@H]2CC[C@@H](O)CC2)cs1)c1c[nH]c2ccccc12 [Compound I-47]
AHR [1]
  EC50: > 1 µM
AHR [2]; [4]
  EC50: > 1 µM

## COC(=O)c1nc(C(=O)c2c[nH]c3ccccc23)sc1N [Compound I-56]
AHR [3]; [7]
  EC50: < 0.01 µM
AHR [2]; [6]
  EC50: < 0.01 µM

## C[N+](C)(C)CCCN1CCC(c2csc(C(=O)c3c[nH]c4ccccc34)n2)CC1 [Compound I-20]
AHR [1]
  EC50: > 1 µM
AHR [2]; [4]
  EC50: > 1 µM

## C[N+]1(C)CCC(c2csc(C(=O)c3c[nH]c4ccccc34)n2)CC1 [Compound I-8]
AHR [1]
  EC50: > 1 µM
AHR [2]; [4]
  EC50: 0.1 to 1 µM

## COc1ccc2c(C(=O)c3nc(C(C)(C)C)cs3)c[nH]c2c1 [Compound I-60]
AHR [3]; [7]
  EC50: < 0.01 µM
AHR [2]; [6]
  EC50: < 0.01 µM

## N#Cc1nc(C(=O)c2c[nH]c3ccccc23)sc1Br [Compound I-97]
AHR [3]; [5]
  EC50: > 1 µM
AHR [2]; [6]
  EC50: 0.1 to 1 µM

## O=C(O)CCCN1CCC(c2csc(C(=O)c3c[nH]c4ccccc34)n2)CC1 [Compound I-5]
AHR [1]
  EC50: > 1 µM
AHR [2]; [4]
  EC50: 0.1 to 1 µM

## Nc1sc(C(=O)c2c[nH]c3ccccc23)nc1C(F)(F)F [Compound I-51]
AHR [3]; [7]
  EC50: < 0.01 µM
AHR [2]; [6]
  EC50: < 0.01 µM

## COC(=O)c1nc(C(=O)c2c[nH]c3ccccc23)sc1N(C)C [Compound I-95]
AHR [3]; [5]
  EC50: > 1 µM
AHR [2]; [6]
  EC50: 0.01 to 0.1 µM

## COC(=O)c1nc(C(=O)c2c[nH]c3ccccc23)sc1C(F)(F)F [Compound I-54]
AHR [3]; [5]
  EC50: > 1 µM
AHR [2]; [6]
  EC50: < 0.01 µM

## CNC(=O)c1csc(C(=O)c2c[nH]c3ccccc23)n1 [Compound P-3]
AHR [1]
  EC50: > 1 µM

## CC(C)c1csc(C(=O)c2c[nH]c3cc(C(=O)O)ccc23)n1 [Compound I-62]
AHR [3]; [7]
  EC50: > 1 µM
AHR [2]; [6]
  EC50: > 1 µM

## CC(C)c1csc(C(=O)c2c[nH]c3cc(C(=O)O)ccc23)n1 [Compound I-59]
AHR [3]; [7]
  EC50: 0.1 to 1 µM
AHR [2]; [6]
  EC50: 0.1 to 1 µM

## O=C(c1nc(C(F)(F)F)cs1)c1c[nH]c2ccccc12 [Compound I-92]
AHR [3]; [7]
  EC50: < 0.01 µM
AHR [2]; [6]
  EC50: < 0.01 µM

## CC(C)c1csc(C(=O)c2c[nH]c3c(C(=O)O)cccc23)n1 [Compound I-89]
AHR [3]; [5]
  EC50: > 1 µM
AHR [2]; [6]
  EC50: > 1 µM

## N#Cc1nc(C(=O)c2c[nH]c3ccccc23)sc1N [Compound I-50]
AHR [3]; [7]
  EC50: < 0.01 µM
AHR [2]; [6]
  EC50: < 0.01 µM

## Cc1sc(C(=O)c2c[nH]c3ccccc23)nc1C(=O)OC(C)C [Compound I-11]
AHR [1]
  EC50: > 1 µM
AHR [2]; [4]
  EC50: 0.1 to 1 µM

## O=C(c1nc([C@H]2CC[C@@H](C(=O)O)CC2)cs1)c1c[nH]c2ccccc12 [Compound I-9]
AHR [1]
  EC50: > 1 µM
AHR [2]; [4]
  EC50: 0.1 to 1 µM

## CC(C)c1csc(C(=O)c2c[nH]c3ccccc23)n1 [Compound P-2]
AHR [1]
  EC50: > 1 µM
AHR [2]; [4]
  EC50: < 0.01 µM

## CC(C)(C)c1csc(C(=O)c2c[nH]c3ccccc23)n1 [Compound I-61]
AHR [3]; [7]
  EC50: < 0.01 µM
AHR [2]; [6]
  EC50: < 0.01 µM
